Where “and” joins values, the source holds several entries; their conditions need not be identical. Identical values can stand only once. Like-named read-outs stand apart in the source and are kept apart here.
Key:
[1] = tested on: MUTU-I Burkitt’s lymphoma cell line; details: cited from earlier work; for IC50: read-out: IC50 MUTU-I, previous work
[2] = tested on: DG-75 Burkitt’s lymphoma cell line; details: read-out: IC50 DG-75; previous work; cited from earlier work
PGA-1 CLL cell line = assay: alamarBlue cell viability assay; details: 24 h; for % Viability PGA-1: 10 µM
HG-3 CLL cell line = assay: alamarBlue cell viability assay; details: 24 h; for viability at 10 µM: read-out: % Viability HG-3, 10 µM, 24 h
[3] = tested on: MUTU-I Burkitt’s lymphoma cell line; assay: alamarBlue cell viability assay; details: 24 h; for viability at 1 µM / viability at 10 µM: MUTU-I
[4] = tested on: DG-75 Burkitt’s lymphoma cell line; assay: alamarBlue cell viability assay; details: for viability at 1 µM / viability at 10 µM: Homo sapiens, DG-75, 48 h; for % Viable Cells Remaining DG-75: 48 h
[5] = tested on: MUTU-I Burkitt’s lymphoma cell line; details: human, 24 h, 10 µM
[6] = tested on: DG-75 Burkitt’s lymphoma cell line; details: human, 48 h, 10 µM
[7] = CLL cell, read-out: % Viability PGA-1, 10 µM, 24 h
[8] = read-out: % Viable Cells Remaining MUTU-1, 1 µM, 24 h
[9] = read-out: % Viable Cells Remaining MUTU-1, 10 µM, 24 h
[10] = read-out: % Viable Cells Remaining DG-75, 1 µM, 48 h
[11] = read-out: % Viable Cells Remaining DG-75, 10 µM, 48 h
[12] = read-out: % Viable Cells Remaining MUTU-1
[13] = read-out: % Viable Cells Remaining DG-75

| SMILES | viability at 10 µM (PGA-1 CLL cell line; [7]) | viability at 1 µM [3, 8] | viability at 10 µM [3, 9] | viability at 1 µM [4, 10] | viability at 10 µM [4, 11] | % Viable Cells Remaining MUTU-1 [5] | also measured |
| --- | --- | --- | --- | --- | --- | --- | --- |
| CC/C(=C\c1cc(Br)ccc1OC)[N+](=O)[O-] [Compound 10a, (E)-4-bromo-1-methoxy-2-(2-nitrobut-1-en-1-yl)benzene, reference compound] | 0.97% |  |  |  |  |  | IC50 [1]: 450 nM; IC50 [2]: 1410 nM; viability at 1 µM (PGA-1 CLL cell line; CLL cell, read-out: % Viability PGA-1, 1 µM, 24 h): 96.4% |
| COc1ccc2c(c1)OC(c1ccccc1)C([N+](=O)[O-])=C2 (stereo not shown) [Compound 10b, reference compound] |  |  |  |  |  |  | IC50 [1]: 470 nM; IC50 [2]: 1920 nM |
| O=[N+]([O-])/C(=C/c1ccc(Cl)cc1)Cc1ccc(Cl)cc1 [Compound 10c, reference compound] |  |  |  |  |  |  | IC50 [1]: 2970 nM; IC50 [2]: 6390 nM |
| C/C(=C\c1ccc(F)cc1)[N+](=O)[O-] [Compound 11c] | 3.7% |  |  |  |  |  | % Viable Cells Remaining MUTU-1 24 h 10 µM ([1]; nitrostyrenes, 10 µM, 24 h): 19.06%; viability at 10 µM (HG-3 CLL cell line; CLL cell): 8.76% |
| CC/C(=C\c1ccccc1F)[N+](=O)[O-] [Compound 11d] |  |  |  |  |  |  | % Viability PGA-1 (PGA-1 CLL cell line): 0.02%; % Viability HG-3 (HG-3 CLL cell line; 10 µM): 0.66%; viability at 1 µM (HG-3 CLL cell line; CLL cell, read-out: % Viability HG-3, 1 µM, 24 h): 14.5% |
| C/C(=C\c1c2ccccc2cc2ccccc12)[N+](=O)[O-] [Compound 19b, (E)-9-(2-nitroprop-1-en-1-yl)anthracene] | 81% | 99.8% | 88.2% | 102% | 89.3% |  | viability at 10 µM (HG-3 CLL cell line; CLL cell): 82% |
| CC/C(=C\c1c2ccccc2cc2ccccc12)[N+](=O)[O-] [Compound 19c] | 66% | 88.6% | 78% | 83.8% | 92.3% |  | viability at 10 µM (HG-3 CLL cell line; CLL cell): 72% |
| O=[N+]([O-])/C=C/c1c2ccccc2c(Cl)c2ccccc12 [Compound 19d] | 51.8% | 70.8% | 7.6% | 75.1% | 57.1% | 7.61% | viability at 10 µM (HG-3 CLL cell line; CLL cell): 97% |
| C/C(=C\c1c2ccccc2c(Cl)c2ccccc12)[N+](=O)[O-] [Compound 19e] |  | 105% | 98.6% | 82.5% | 99.6% | 98.6% | viability at 10 µM (HG-3 CLL cell line; CLL cell): 87% |
| CC/C(=C\c1c2ccccc2c(Cl)c2ccccc12)[N+](=O)[O-] [Compound 19f, (E)-9-chloro-10-(2-nitrobut-1-en-1-yl)anthracene] |  | 96.6% | 97.5% | 105% | 78% | 97.5% |  |
| O=[N+]([O-])/C=C/c1c2ccccc2c(Br)c2ccccc12 [Compound 19h, (E)-9-Bromo-10-(2-Nitrovinyl)Anthracene] | 36.9% | 51.2% | 3.36% | 84.8% | 70% |  | melting point: 227 to 230 °C |
| O=[N+]([O-])C=CCc1c2ccccc2cc2ccccc12 [Compound 20a, 9-(3-Nitroallyl)Anthracene] | > 50% | 106% |  | 99.9% | 79 to 97% |  | % Viable Cells Remaining DG-75 [6]: 79.71% |
| CC(=CCc1c2ccccc2cc2ccccc12)[N+](=O)[O-] [Compound 20b, 9-(3-Nitrobut-2-en-1-yl)Anthracene] |  | 105% | 15 to 40% | 95.4% | 79 to 97% | 14.55% | % Viable Cells Remaining DG-75 [6]: 97.63% |
| O=[N+]([O-])/C=C/c1cc2ccccc2c2ccccc12 [Compound 21, (E)-9-(2-Nitrovinyl)phenanthrene] | 11.8% |  |  | 99.5% | 60% |  | viability at 1 µM [3, 12]: 73.6%; viability at 10 µM [3, 12]: 1.68%; % Viable Cells Remaining DG-75 ([4]; 10 µM): 62.2%; viability at 10 µM (HG-3 CLL cell line; CLL cell): 29% |
| N#CC(C#N)=Cc1c2ccccc2cc2ccccc12 [Compound 23a] |  |  |  |  |  |  | viability at 1 µM [3, 12]: 91.9%; viability at 10 µM [3, 12]: 65.3%; viability at 10 µM (PGA-1 CLL cell line; CLL cell, read-out: % Viability PGA-1): > 50%; viability at 1 µM [4, 13]: 104%; viability at 10 µM [4, 13]: 98.1% |
| N#CC(C#N)=Cc1c2ccccc2c(Cl)c2ccccc12 [Compound 23b, 2-((10-Chloroanthracen-9-yl)Methylene)Malononitrile] |  |  |  |  |  |  | % Viable Cells Remaining MUTU-1 ([3]; 1 µM): 92.59%; % Viable Cells Remaining MUTU-1 ([3]; 10 µM): ~ 20% and 16.78%; melting point: 196 to 198 °C; % Viability PGA-1 (PGA-1 CLL cell line): > 50%; % Viable Cells Remaining DG-75 ([4]; 1 µM): 85.59%; % Viable Cells Remaining DG-75 ([4]; 10 µM): ~ 55% and 52.84% |
| CC(=O)/C=C/c1c2ccccc2cc2ccccc12 [Compound 25] |  | 107% | > 90% | 96.3% | > 90% | 103.2% | % Viable Cells Remaining DG-75 [6]: 100.5% |
| ClCc1c2ccccc2cc2ccccc12 [Compound 27, 9-(chloromethyl)anthracene] |  | 102% | 93.8% | 79% | 85.5% | 93.8% |  |
| c1ccc2c(-c3c[nH]nn3)c3ccccc3cc2c1 [Compound 30a, 4-(anthracen-9-yl)-1H-1,2,3-triazole] |  | 94.9% | > 90% | 104% | > 90% | 94.5% | % Viable Cells Remaining DG-75 [6]: 94.86% |
| Cc1[nH]nnc1-c1c2ccccc2cc2ccccc12 [Compound 30b, 4-(Anthracen-9-yl)-5-Methyl-1H-1,2,3-Triazole] |  | 108% | > 90% | 96.2% | > 90% | 107.3% | % Viable Cells Remaining DG-75 [6]: 100.6%; melting point: 231 to 232 °C |
| CN(C)C(=O)c1c2ccccc2cc2ccccc12 [Compound 33b] |  | 91.4% | 90.1% | 96.2% | 75% | 90.1% | melting point: 150 to 152 °C |
| O=C(c1c2ccccc2cc2ccccc12)N1CCCCCC1 [Compound 33c, Anthracen-9-yl(Azepan-1-yl)Methanone] |  | 86.8% | 77.4% | 69.6% | 71.6% | 77.4% | melting point: 134 to 137 °C |
| O=C(c1c2ccccc2cc2ccccc12)N1CCCC1 [Compound 33d] |  | 91.6% | 95.6% | 69.4% | 67.1% | 95.6% | melting point: 149 to 151 °C |
| O=C(c1c2ccccc2cc2ccccc12)N1CCCCC1 [Compound 33f] |  | 83.1% | 84.8% | 72.5% | 78.8% | 84.8% | melting point: 181 to 183 °C |
